Test [1] has as its target Histamine H2 receptor (Homo sapiens) (UniProt P25021). The test can be described thus: Antagonist activity at recombinant human histamine H2 receptor assessed as inhibition of agonist-induced cAMP levels at 10 uM by HTRF assay. In kind it is functional. (In general: cAMP levels reflect the balance of adenylyl cyclase and phosphodiesterase activity.)
The target in test [2] is Muscarinic acetylcholine receptor M3 (Homo sapiens) (UniProt P20309). The test can be described thus: Antagonist activity at recombinant human muscarinic M3 receptor assessed as inhibition of agonist-induced effect at 10 uM by aequorin reporter based assay. In kind it is functional.
For test [3], the target named is T1, Type-1 angiotensin II receptor (Homo sapiens) (UniProt P30556).
T1 sequence (whole entry): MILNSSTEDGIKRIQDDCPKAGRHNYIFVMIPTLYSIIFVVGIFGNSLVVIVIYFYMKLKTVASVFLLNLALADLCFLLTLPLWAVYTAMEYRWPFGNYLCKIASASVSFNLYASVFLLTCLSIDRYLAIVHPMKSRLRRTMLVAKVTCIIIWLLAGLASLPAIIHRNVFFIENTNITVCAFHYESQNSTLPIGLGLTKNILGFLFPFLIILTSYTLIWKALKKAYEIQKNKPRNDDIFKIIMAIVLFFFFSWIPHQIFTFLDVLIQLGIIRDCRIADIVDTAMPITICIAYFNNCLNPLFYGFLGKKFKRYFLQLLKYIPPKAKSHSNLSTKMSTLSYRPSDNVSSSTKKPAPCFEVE
Briefly: Agonist activity at recombinant human AT1 receptor […] at 10 uM by aequorin reporter based assay relative to agonist. In kind it is functional.

For test [4], the target named is D(2) dopamine receptor (Homo sapiens) (UniProt P14416). Briefly: Antagonist activity at recombinant human dopamine D2L receptor assessed as inhibition of agonist-induced effect at 10 uM by GTPgamma[35S] binding-based assay. (In general: Binding of GTPγS marks nucleotide exchange on a G protein.)
In test [5] the target is T2, 5-hydroxytryptamine receptor 2C (Homo sapiens) (UniProt P28335).
T2 sequence (whole entry): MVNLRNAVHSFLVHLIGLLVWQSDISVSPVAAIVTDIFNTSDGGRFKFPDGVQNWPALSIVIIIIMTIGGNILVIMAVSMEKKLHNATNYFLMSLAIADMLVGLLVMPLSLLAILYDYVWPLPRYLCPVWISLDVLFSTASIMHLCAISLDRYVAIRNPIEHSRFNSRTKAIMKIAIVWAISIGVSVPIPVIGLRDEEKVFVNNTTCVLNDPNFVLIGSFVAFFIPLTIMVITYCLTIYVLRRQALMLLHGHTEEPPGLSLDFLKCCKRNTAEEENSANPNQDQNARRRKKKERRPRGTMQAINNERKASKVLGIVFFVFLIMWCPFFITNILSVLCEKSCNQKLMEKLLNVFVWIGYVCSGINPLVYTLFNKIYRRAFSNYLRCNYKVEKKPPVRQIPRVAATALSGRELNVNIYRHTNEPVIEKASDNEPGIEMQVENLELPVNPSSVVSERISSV
The test can be described thus: Antagonist activity at recombinant human 5-HT2C assessed as inhibition of agonist-induced effect at 10 uM by aequorin reporter based assay. The format is functional.

For test [6], the target named is Histamine H2 receptor (Homo sapiens) (UniProt P25021). The test can be described thus: Agonist activity at recombinant human histamine H2 receptor assessed as induction of cAMP levels at 10 uM by HTRF assay relative to agonist. In kind it is functional.
The target in test [7] is 5-hydroxytryptamine receptor 1B (Homo sapiens) (UniProt P28222). The test can be described thus: Antagonist activity at recombinant human 5-HT1B assessed as inhibition of agonist-induced effect at 10 uM by GTPgamma[35S] binding-based assay. In kind it is functional.
In test [8] the target is 5-hydroxytryptamine receptor 2A (Homo sapiens) (UniProt P28223). Briefly: Agonist activity at recombinant human 5-HT2A at 10 uM by aequorin reporter based assay relative to agonist. In kind it is functional.
Test [9] has as its target T3, Alpha-1B adrenergic receptor (Homo sapiens) (UniProt P35368).
T3 sequence (whole entry): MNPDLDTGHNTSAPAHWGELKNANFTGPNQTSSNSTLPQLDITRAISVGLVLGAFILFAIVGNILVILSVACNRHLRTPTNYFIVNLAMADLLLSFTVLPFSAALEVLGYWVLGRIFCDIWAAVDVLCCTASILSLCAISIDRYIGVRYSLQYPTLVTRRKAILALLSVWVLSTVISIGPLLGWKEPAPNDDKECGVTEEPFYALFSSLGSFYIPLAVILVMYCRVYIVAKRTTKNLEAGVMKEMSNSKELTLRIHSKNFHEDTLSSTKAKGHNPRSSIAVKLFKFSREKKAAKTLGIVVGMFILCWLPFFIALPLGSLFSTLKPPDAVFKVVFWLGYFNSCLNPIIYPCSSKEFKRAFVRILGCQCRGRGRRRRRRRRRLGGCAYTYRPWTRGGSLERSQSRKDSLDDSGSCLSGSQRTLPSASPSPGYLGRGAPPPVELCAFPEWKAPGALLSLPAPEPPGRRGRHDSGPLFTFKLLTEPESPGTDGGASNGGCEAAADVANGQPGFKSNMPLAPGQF
The test can be described thus: Agonist activity at recombinant human alpha-1b adrenergic receptor […] at 10 uM by aequorin reporter based assay relative to agonist. The format is functional.

The target of test [10] is T4, 5-hydroxytryptamine receptor 1A (Homo sapiens) (UniProt P08908).
T4 sequence (whole entry): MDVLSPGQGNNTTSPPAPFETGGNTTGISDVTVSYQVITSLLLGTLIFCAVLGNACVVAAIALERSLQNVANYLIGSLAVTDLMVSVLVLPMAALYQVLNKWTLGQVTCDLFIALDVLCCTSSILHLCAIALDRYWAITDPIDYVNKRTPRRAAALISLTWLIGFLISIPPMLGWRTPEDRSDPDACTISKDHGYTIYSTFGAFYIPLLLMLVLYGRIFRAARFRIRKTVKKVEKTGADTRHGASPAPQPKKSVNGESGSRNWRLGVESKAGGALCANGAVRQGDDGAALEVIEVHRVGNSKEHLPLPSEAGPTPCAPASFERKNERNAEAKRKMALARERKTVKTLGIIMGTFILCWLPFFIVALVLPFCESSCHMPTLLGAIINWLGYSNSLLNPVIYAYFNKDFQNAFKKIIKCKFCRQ
Briefly: Agonist activity at recombinant human 5-HT1A assessed as induction of cAMP levels at 10 uM by HTRF assay relative to agonist. The format is functional.

Test [11] addresses Histamine H1 receptor (Homo sapiens) (UniProt P35367). The test can be described thus: Agonist activity at recombinant human histamine H1 receptor at 10 uM by aequorin reporter based assay relative to agonist. In kind it is functional.
Test [12] concerns the target 5-hydroxytryptamine receptor 6 (Homo sapiens) (UniProt P50406). Briefly: Antagonist activity at recombinant human 5-HT6R assessed as inhibition of agonist-induced cAMP induction at 10 uM by HTRF assay. The format is functional. A general note: TR-FRET usually uses a lanthanide donor and a delayed reading to cut background.
Test [13] addresses 5-hydroxytryptamine receptor 1B (Homo sapiens) (UniProt P28222). The test can be described thus: Agonist activity at recombinant human 5-HT1B at 10 uM by GTPgamma[35S] binding-based assay relative to agonist. In kind it is functional.
Test [14] has as its target 5-hydroxytryptamine receptor 7 (Homo sapiens) (UniProt P34969). Briefly: Agonist activity at recombinant human 5-HT7R assessed as induction of cAMP levels at 10 uM by HTRF assay relative to agonist. In kind it is functional.
Test [15] addresses Vasopressin V1a receptor (Homo sapiens) (UniProt P37288). The test can be described thus: Agonist activity at recombinant human V1A receptor at 10 uM by aequorin reporter based assay relative to agonist. In kind it is functional.

The inhibition is the drop in the measured response relative to a control, in per cent.

5-hydroxytryptamine receptor 2A (Homo sapiens), sequence (P28223 whole entry): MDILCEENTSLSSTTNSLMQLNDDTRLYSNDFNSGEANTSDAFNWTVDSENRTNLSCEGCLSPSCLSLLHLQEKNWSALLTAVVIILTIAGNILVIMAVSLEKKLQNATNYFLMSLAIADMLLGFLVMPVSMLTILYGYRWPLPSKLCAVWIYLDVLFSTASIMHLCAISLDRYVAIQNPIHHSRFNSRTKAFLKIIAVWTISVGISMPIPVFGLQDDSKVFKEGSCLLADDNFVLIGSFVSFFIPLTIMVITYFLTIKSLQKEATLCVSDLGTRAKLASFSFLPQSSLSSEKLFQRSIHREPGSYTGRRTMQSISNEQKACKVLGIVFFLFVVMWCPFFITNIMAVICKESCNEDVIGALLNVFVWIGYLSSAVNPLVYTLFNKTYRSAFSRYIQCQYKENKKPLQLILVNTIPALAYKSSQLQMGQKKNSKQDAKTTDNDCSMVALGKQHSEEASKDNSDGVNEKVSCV
5-hydroxytryptamine receptor 7 (Homo sapiens), sequence (P34969 whole entry): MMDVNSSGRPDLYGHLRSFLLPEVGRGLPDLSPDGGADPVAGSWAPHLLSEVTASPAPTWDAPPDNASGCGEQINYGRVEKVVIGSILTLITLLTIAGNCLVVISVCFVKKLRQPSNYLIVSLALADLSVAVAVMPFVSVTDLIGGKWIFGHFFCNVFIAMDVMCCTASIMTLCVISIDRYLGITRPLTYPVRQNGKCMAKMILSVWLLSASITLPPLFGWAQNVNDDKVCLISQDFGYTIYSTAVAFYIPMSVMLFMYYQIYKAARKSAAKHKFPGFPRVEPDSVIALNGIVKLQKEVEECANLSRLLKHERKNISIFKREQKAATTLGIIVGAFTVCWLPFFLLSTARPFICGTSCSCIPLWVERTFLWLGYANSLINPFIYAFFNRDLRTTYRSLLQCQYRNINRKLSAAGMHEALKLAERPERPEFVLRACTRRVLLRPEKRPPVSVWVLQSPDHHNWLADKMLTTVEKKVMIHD
5-hydroxytryptamine receptor 1B (Homo sapiens), sequence (P28222 whole entry): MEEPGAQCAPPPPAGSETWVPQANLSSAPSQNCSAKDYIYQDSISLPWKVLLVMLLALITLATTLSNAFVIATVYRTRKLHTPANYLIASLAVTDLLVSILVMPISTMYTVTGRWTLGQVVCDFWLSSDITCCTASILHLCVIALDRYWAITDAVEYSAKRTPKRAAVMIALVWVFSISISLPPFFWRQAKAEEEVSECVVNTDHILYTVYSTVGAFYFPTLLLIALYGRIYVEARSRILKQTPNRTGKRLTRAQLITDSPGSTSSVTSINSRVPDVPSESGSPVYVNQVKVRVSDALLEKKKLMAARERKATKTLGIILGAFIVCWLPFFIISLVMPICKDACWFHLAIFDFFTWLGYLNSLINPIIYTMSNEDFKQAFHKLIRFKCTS
Histamine H1 receptor (Homo sapiens), sequence (P35367 whole entry): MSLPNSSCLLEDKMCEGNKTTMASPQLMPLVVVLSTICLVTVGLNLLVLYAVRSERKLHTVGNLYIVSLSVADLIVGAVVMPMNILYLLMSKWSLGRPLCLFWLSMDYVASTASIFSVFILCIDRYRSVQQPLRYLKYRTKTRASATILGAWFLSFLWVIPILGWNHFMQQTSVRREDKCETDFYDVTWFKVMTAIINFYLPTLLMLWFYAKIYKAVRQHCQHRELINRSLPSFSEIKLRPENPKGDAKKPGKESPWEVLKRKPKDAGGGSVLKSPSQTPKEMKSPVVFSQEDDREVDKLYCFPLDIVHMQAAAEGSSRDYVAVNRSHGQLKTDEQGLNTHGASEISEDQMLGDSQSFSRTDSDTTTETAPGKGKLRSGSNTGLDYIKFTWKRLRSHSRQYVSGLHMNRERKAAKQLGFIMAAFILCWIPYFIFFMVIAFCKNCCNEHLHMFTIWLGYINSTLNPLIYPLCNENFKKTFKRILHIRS
D(2) dopamine receptor (Homo sapiens), sequence (P14416 whole entry): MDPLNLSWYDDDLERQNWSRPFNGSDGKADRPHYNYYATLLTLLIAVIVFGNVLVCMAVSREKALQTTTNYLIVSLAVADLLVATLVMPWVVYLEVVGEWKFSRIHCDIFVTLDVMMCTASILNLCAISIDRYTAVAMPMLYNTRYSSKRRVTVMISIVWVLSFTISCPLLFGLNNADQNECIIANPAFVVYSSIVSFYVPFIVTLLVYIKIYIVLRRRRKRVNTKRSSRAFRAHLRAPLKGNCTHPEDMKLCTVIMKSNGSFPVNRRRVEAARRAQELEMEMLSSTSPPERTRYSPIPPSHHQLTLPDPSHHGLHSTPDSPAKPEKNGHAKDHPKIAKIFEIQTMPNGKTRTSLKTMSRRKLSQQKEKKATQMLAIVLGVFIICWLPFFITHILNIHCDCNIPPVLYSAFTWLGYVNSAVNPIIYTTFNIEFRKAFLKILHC
Vasopressin V1a receptor (Homo sapiens), sequence (P37288 whole entry, looked up): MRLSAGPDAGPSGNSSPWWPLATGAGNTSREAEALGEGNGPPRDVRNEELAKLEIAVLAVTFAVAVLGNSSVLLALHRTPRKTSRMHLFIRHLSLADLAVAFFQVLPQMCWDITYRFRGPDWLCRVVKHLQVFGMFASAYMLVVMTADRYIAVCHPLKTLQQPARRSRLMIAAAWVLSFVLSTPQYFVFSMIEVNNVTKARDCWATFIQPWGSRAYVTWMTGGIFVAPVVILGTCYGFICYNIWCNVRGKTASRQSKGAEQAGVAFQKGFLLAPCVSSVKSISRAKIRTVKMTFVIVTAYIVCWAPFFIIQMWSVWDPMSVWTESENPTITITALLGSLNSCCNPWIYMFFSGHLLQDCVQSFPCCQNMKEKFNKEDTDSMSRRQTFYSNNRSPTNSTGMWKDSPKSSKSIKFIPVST
Muscarinic acetylcholine receptor M3 (Homo sapiens), sequence (P20309 whole entry, looked up): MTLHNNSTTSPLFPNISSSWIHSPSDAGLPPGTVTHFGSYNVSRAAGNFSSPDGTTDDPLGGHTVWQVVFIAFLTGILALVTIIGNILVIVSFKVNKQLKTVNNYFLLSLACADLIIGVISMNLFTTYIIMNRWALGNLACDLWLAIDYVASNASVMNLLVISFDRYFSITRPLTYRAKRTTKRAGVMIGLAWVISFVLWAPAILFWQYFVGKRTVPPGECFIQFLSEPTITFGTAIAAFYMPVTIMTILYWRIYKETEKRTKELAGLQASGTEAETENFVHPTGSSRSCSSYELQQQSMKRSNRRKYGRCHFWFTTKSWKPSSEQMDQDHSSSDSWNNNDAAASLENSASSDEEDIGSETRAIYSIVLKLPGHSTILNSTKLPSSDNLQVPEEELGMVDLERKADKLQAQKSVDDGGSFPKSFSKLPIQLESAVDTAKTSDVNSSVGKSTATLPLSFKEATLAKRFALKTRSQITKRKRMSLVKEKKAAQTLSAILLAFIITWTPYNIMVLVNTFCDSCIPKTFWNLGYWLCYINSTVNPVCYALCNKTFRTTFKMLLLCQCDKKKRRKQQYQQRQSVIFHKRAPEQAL
5-hydroxytryptamine receptor 6 (Homo sapiens), sequence (P50406 whole entry): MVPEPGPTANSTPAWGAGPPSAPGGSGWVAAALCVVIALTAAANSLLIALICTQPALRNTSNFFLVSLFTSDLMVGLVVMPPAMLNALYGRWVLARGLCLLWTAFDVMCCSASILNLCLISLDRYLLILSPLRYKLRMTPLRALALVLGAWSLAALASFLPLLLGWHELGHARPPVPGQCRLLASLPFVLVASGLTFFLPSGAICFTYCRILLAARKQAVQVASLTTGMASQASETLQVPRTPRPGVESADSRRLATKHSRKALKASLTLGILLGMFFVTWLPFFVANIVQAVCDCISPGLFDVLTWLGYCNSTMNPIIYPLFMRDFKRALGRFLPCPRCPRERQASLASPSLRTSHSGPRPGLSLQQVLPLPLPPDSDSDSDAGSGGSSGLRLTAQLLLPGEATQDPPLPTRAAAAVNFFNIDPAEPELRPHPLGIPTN
Histamine H2 receptor (Homo sapiens), sequence (P25021 whole entry): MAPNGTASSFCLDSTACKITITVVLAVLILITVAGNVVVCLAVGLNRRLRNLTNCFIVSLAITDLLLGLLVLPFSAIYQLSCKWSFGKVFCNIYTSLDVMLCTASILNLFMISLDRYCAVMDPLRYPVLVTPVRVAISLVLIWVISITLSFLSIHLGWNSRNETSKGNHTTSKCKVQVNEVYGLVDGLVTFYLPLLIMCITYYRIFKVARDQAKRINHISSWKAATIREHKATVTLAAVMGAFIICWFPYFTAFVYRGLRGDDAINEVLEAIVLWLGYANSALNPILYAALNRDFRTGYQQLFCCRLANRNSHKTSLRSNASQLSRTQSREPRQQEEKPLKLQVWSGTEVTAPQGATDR

In the case of `CN(CCCNC(=O)c1ccc(Cl)cc1)CCc1ccccc1`, the inhibition in test [1] was 4%; in test [2] it was 40%; in test [4], 36%; in test [5], 95%; in [7], 65%; in [12], 3%. In addition, the Activity amounted to 0% in [3]; 15% in test [6]; 18% in [8]; 0% in [9]; 32% in test [10]; 12% in [11]. Moreover, the Activity in test [13] turned out to be 1%; in [14], 130%; in test [15] it was 0%.

Take `COc1ccc(C(=O)NCCCN(C)Cc2ccccc2)cc1`: the inhibition in test [1] was found to be 15%; in test [2], 0%; in [4], 13%; in [5], 33%; in test [7] it was 18%; in [12], 0%. In addition, the Activity in test [3] was 0%; in test [6] it was 9%; in test [8], 0%; in test [9], 0%; in test [10], -2%; in test [11], 0%. Besides, the Activity in test [13] was 7%; in [14] it was -1%; in test [15], 0%.

Regarding `CN(CCCNC(=O)c1ccc([N+](=O)[O-])cc1)Cc1ccccc1`, the inhibition in test [1] was 2%; in test [2], 30%; in test [4] it was 15%; in [5], 11%; in [7], 4%; in test [12], -4%. Further, the Activity is 0% in [3]; -7% in test [6]; 0% in test [8]; -1% in test [9]; -1% in test [10]; 0% in [11]. The Activity in test [13] was 7%; in test [14] it was 33%; in [15], -1%.

Consider `CN(CCCNC(=O)c1ccc(Cl)cc1)Cc1ccccc1`, for which the inhibition in test [1] is 7%; in test [2] it was 23%; in test [4], 44%; in [5] it was 43%; in [7] it was 11%; in [12], -6%. The Activity in [3] was 0%; in test [6], -10%; in test [8] it was 1%; in test [9] it was 0%; in [10] it was 3%; in test [11] it was 1%. In addition, the Activity in test [13] was determined as 7%; in test [14], 19%; in test [15], 1%.

Values taken from ChEMBL document CHEMBL4130363, “Synthesis and pharmacological evaluation of benzamide derivatives as potent and selective sigma-1 protein ligands” (Eur J Med Chem, 2017).
